Results from patent US12441768B2, “Compositions and methods for treating endometriosis” (EndoMet Biosciences, Inc., priority 2018, dated 2025).
Where a SMILES comes first, the peptide text is derived from it.

Target: T1, β-catenin (Homo sapiens, UniProt P35222)
T1 sequence (P35222 1-781): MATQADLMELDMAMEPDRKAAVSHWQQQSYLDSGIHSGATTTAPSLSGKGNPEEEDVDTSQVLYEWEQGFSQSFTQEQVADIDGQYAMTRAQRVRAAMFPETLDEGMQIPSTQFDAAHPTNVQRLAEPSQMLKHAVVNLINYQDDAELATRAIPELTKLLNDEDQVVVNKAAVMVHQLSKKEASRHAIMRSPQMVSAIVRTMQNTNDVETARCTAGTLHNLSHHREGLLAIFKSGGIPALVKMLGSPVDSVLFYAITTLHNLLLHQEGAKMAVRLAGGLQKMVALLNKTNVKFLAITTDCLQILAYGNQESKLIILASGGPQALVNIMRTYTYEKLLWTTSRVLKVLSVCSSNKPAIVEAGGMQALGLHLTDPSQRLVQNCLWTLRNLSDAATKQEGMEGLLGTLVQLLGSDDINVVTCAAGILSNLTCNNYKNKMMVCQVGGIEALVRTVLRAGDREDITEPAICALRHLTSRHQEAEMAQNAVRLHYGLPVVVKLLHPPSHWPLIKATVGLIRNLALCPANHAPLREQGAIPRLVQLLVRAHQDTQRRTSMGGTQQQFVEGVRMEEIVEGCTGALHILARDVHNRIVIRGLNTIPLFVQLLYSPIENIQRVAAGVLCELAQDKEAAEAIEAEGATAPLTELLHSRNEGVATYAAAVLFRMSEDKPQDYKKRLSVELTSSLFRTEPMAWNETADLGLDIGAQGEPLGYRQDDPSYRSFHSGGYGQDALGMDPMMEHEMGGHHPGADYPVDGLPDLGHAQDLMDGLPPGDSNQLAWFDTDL
Experiment: KD50 measurement using competitive fluorescence polarization (FP) with labelled TCF4
Format: binding
Conditions: fluorescence polarization, β-catenin; for Kd: read-out: β-Cat FP KD
Method in brief: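 Each compound competes against labelled TCF4 (5 nM) for 100 nM β-catenin at room temperature, tested over 10 nM to 30 uM. Signal: polarization at 470/520 nm excitation/emission. Three repeat experiments were performed.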

## CC[C@H](C)[C@@H]1NC(=O)[C@@H](NC(=O)[C@H](CCC(N)=O)NC(=O)C(C)(C)NC(=O)[C@H](Cc2c[nH]c3ccccc23)NC(C)=O)CCCCNC(=O)C[C@@H](C(=O)N[C@@H](Cc2c[nH]cn2)C(=O)N[C@H](C(=O)N[C@@H](CCC(N)=O)C(=O)N[C@@H](CCCNC(=N)N)C(=O)N[C@H](C(=O)N[C@@H](Cc2c[nH]c3ccccc23)C(N)=O)C(C)C)C2CCCCC2)NC(=O)[C@H](CC(N)=O)NC(=O)[C@H](CC(C)C)NC1=O [compound 455] (HELM PEPTIDE1{[ac].W.[Aib].Q.K.I.L.N.D.H.[O=C([C@@H](N[*:1])C1CCCCC1)[*:2]].Q.R.V.W.[am]}$PEPTIDE1,PEPTIDE1,5:R3-9:R3$$$V2.0)
  β-Cat FP Hill slope: 1.03
  Kd: < 0.4 µM

## CC[C@H](C)[C@@H]1NC(=O)[C@H](CC(C)C)NC(=O)[C@H](CC2CCCCC2)NC(=O)[C@H](Cc2c[nH]c3ccccc23)NC(=O)[C@@H](NC(C)=O)CCCCNC(=O)C[C@@H](C(=O)O)NC(=O)[C@H](Cc2c[nH]c3ccccc23)NC(=O)[C@H](C)NC(=O)[C@H](CO)NC1=O [compound 255] (HELM PEPTIDE1{[ac].K.W.[Cha].L.I.S.A.W.D}$PEPTIDE1,PEPTIDE1,2:R3-10:R3$$$V2.0)
  Kd: > 30 µM

## CCCCCCCCCCCC(=O)N[C@@H](Cc1c[nH]c2ccccc12)C(=O)N(C)[C@@H](C)C(=O)N[C@@H](CCC(N)=O)C(=O)N[C@H]1CCCCNC(=O)CC[C@@H](C(=O)N[C@@H](Cc2c[nH]cn2)C(=O)N[C@H](C(=O)N[C@@H](CCC(N)=O)C(=O)N[C@@H](CCCNC(=N)N)C(=O)N[C@H](C(=O)N[C@@H](Cc2c[nH]c3ccccc23)C(=O)NCC(N)=O)C(C)C)C2CCCCC2)NC(=O)[C@H](CC(N)=O)NC(=O)[C@H](CC(C)C)NC(=O)[C@H]([C@@H](C)CC)NC1=O [compound 436] (HELM PEPTIDE1{[CCCCCCCCCCCC(=O)[*:2]].W.[meA].Q.K.I.L.N.E.H.[O=C([C@@H](N[*:1])C1CCCCC1)[*:2]].Q.R.V.W.G.[am]}$PEPTIDE1,PEPTIDE1,5:R3-9:R3$$$V2.0)
  Kd: > 30 µM

## CC[C@H](C)[C@H](NC(=O)[C@H](CC(C)C)NC(=O)[C@H](Cc1ccccc1)NC(=O)[C@H](Cc1c[nH]c2ccccc12)NC(=O)[C@H](CCSC)NC(=O)[C@H](CCCNC(=N)N)NC(=O)[C@H](CO)NC(=O)[C@@H](N)CCSC)C(=O)N[C@@H](CO)C(=O)N[C@@H](Cc1ccccc1)C(=O)N[C@@H](Cc1c[nH]c2ccccc12)C(=O)N[C@@H](CCCCN)C(N)=O [compound 6] (H-MSRMWFLISFWK-NH2)
  Kd: > 30 µM

## CC[C@H](C)[C@@H]1NC(=O)[C@H](CC(C)C)NC(=O)[C@H](Cc2ccccc2)NC(=O)[C@H](Cc2c[nH]c3ccccc23)NC(=O)CCCCCCCCCNC(=O)[C@H](Cc2c[nH]c3ccccc23)NC(=O)[C@H](C)NC(=O)[C@H](CS)NC1=O [compound 250] (HELM PEPTIDE1{A.W.[O=C(CCCCCCCCCN[*:1])[*:2]].W.F.L.I.C}$PEPTIDE1,PEPTIDE1,1:R1-8:R2$$$V2.0)
  Kd: 1 to 10 µM

## CCC[C@H]1C(=O)N[C@@H](Cc2c[nH]c3ccccc23)C(=O)N[C@@H](CC(C)C)C(=O)N[C@@H](CO)C(=O)N[C@@H](CCCNC(=N)N)C(=O)N[C@@H](CCC(N)=O)C(=O)N[C@@H](Cc2c[nH]c3ccccc23)C(=O)N[C@@H]([C@@H](C)CC)C(=O)N[C@@H](C(C)C)C(=O)N[C@H](C(N)=O)CCCCNC(=O)CCCC(=O)N[C@@H](CCSC)C(=O)N[C@@H](Cc2c[nH]c3ccccc23)C(=O)N1C [compound 5] (HELM PEPTIDE1{M.W.[CCC[C@@H](C(=O)[*:2])N(C)[*:1]].W.L.S.R.Q.W.I.V.K.[am]}|CHEM1{[O=C(CCCC(=O)[*:2])[*:1]]}$PEPTIDE1,CHEM1,1:R1-1:R1|PEPTIDE1,CHEM1,12:R3-1:R2$$$V2.0)
  β-Cat FP Hill slope: 0.5
  Kd: 1 to 10 µM
